Assay results from ChEMBL document CHEMBL1201862, “PubChem BioAssay data set” (2004).
Calls of active or inactive are those of the source.

How the values were obtained:
[1] = target: T1, Tyrosine-protein phosphatase non-receptor type 7 (Homo sapiens, UniProt P35236); experiment: inhibitors of human HePTP phosphatase, […], biochemical, absorbance, leukemia target (AID 521); type: functional
T1 sequence (P35236 whole entry): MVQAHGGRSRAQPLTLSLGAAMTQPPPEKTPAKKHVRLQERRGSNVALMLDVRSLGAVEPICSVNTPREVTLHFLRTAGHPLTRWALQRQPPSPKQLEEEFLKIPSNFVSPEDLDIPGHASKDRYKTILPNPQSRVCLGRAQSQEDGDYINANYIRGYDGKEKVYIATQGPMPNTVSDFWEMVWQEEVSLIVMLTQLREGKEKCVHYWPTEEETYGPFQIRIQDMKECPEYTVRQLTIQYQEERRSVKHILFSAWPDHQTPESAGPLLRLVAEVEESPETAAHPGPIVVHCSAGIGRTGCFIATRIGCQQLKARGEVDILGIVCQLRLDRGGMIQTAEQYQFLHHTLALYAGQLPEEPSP

[2] = target: Leucyl-cystinyl aminopeptidase (Mus musculus, UniProt Q8C129); experiment: IRAP enzyme inhibitors, dose response, selectivity assay for ERAP1 modulator project, biochemical, dry powder samples, set 3 (AID 1117288); type: functional
Sequence of Leucyl-cystinyl aminopeptidase (Q8C129 whole entry): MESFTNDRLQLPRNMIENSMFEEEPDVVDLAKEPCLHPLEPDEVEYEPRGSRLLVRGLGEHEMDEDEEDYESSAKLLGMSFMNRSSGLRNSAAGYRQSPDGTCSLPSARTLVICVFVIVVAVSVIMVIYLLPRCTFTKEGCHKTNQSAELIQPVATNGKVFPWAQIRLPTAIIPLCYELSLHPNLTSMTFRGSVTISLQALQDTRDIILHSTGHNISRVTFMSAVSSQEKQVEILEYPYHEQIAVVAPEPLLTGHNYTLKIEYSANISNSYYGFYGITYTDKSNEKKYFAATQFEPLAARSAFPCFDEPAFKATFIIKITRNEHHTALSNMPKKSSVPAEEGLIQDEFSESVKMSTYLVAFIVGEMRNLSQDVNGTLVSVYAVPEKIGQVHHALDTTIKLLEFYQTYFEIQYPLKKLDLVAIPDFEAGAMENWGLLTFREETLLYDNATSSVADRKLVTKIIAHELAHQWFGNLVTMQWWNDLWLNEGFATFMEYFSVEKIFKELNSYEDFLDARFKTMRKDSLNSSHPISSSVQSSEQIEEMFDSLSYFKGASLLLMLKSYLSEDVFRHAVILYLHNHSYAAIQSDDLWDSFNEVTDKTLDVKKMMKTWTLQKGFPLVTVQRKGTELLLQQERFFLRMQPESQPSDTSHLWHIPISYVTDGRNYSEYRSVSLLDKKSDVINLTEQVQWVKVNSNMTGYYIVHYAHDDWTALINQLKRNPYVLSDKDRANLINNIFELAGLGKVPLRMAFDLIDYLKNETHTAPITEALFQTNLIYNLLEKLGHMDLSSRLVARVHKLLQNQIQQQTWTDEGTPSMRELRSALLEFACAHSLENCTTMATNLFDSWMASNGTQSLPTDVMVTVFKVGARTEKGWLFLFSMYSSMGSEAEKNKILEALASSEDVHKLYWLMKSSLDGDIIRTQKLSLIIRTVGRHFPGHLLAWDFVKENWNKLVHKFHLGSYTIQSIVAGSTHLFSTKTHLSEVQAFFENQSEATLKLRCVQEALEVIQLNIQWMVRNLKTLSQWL

[3] = target: Endoplasmic reticulum aminopeptidase 2 (Homo sapiens, UniProt Q6P179); experiment: ERAP2 aminopeptidase inhibitors, dose response, selectivity assay for selective ERAP1 modulator project, biochemical, plate reader, dry powder, set 2 (AID 1117289); type: functional
Sequence of Endoplasmic reticulum aminopeptidase 2 (Q6P179 whole entry): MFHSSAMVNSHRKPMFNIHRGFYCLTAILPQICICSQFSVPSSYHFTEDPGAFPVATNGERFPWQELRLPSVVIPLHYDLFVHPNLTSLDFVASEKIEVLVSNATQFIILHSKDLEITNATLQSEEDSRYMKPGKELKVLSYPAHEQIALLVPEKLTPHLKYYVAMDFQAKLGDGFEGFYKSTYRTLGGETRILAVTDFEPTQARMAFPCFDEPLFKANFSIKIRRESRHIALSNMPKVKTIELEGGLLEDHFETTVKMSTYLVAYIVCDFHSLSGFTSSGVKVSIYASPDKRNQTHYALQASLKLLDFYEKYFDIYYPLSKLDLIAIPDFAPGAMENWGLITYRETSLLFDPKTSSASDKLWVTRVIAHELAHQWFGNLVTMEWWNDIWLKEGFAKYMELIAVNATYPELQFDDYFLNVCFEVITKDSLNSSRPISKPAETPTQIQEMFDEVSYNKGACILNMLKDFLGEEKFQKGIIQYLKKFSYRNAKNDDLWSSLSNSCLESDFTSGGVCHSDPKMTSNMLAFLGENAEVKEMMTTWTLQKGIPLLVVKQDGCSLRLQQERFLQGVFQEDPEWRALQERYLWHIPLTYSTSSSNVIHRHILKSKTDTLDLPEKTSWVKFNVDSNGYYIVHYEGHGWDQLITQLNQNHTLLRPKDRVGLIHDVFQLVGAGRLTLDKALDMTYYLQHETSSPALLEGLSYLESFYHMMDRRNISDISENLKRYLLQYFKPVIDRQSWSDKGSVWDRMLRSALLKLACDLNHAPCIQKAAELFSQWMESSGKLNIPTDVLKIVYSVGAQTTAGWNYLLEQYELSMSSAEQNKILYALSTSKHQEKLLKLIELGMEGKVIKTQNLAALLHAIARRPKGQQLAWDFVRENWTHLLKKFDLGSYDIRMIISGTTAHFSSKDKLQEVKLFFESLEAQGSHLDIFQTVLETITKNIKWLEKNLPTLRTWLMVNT

[4] = target: T2, Calpain-2 catalytic subunit (Sus scrofa, UniProt P43367); experiment: pig calpain II inhibitor potency, dose response, biochemical, fluorogenic peptide substrate (AID 1420); type: functional
T2 sequence (P43367 whole entry): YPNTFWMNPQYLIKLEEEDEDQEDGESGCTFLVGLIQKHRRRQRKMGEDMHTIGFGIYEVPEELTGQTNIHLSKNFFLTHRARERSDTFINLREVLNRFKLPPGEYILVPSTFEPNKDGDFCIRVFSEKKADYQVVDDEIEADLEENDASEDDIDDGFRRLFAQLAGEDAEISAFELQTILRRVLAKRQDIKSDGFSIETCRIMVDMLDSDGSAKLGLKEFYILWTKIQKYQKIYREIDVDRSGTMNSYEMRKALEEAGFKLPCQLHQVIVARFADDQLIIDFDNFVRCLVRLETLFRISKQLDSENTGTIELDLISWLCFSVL

[5] = Jurkat T cell cytotoxicity, dose response, cytotoxicity control for P. falciparum gametocyte viability project, luminescence (AID 1117277); type: functional, cell-based;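 also: potency reflects loss of cellular ATP meaning fewer viable cells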
[6] = P. falciparum late gametocyte killing, dose response, luminescence (AID 1117278); type: functional, cell-based;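 also: gametocytes exposed to compound for 24 hours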
cells = type: functional
HT-1080 = experiment: cytotoxicity in HT1080 fibrosarcoma cells, cell-based, fluorescence readout (AID 620); type: functional; conditions: Homo sapiens
[7] = target: Glyceraldehyde-3-phosphate dehydrogenase (Homo sapiens, UniProt P04406)
Sequence of Glyceraldehyde-3-phosphate dehydrogenase (P04406 whole entry): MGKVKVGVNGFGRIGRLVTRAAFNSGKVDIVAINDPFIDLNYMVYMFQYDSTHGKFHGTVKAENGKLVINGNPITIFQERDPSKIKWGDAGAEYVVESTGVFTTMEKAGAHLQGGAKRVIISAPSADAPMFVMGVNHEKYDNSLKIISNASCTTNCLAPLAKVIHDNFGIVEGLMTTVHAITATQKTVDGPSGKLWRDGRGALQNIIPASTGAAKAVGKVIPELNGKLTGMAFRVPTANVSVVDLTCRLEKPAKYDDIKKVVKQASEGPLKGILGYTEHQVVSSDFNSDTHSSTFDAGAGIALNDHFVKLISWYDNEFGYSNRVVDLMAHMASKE

SMILES: O=C(Nc1nncs1)c1c(F)c(F)c(F)c(F)c1F
- IC50 [1]: > 100 µM (not active)

SMILES: COc1ccc(C(=O)O)cc1S(=O)(=O)Nc1ccc(C(F)(F)F)cc1N1CCCCC1
- AC50 [2]: 77 µM (active)
- AC50 [3]: 12.5 µM (active)

SMILES: CCc1ccc2nc(NC(=O)Cn3cnc4ccccc4c3=O)sc2c1
- IC50 [4]: 11.7 µM (not active)
- IC50 [5]: > 83.3 µM (inactive)
- IC50 [6]: > 109 µM (inactive)

SMILES: CCOc1ccc(OCc2ccc(C(=O)OCc3ccccn3)o2)cc1
- IC50 (cells): 36 µM (active)
- EC50 (HT-1080): > 50 µM (not active)
- IC50 [7]: > 100 µM (not active)
